Data published in patent US20120190669A1, “OXINDOLE COMPOUNDS” (CYLENE PHARMACEUTICALS, INC., priority 2008, published 2012).

Biological target: recombinant PIM-1 (Homo sapiens, UniProt P11309)
Assay: PIM-1 kinase assay (radiometric, 15 uM ATP, DMSO 4%)
Format: biochemical
Conditions: Table 1; % inhibition at the high dose (2 micromolar) in a single screening assay; 15 μM ATP

Chain of recombinant PIM-1 (P11309 whole entry): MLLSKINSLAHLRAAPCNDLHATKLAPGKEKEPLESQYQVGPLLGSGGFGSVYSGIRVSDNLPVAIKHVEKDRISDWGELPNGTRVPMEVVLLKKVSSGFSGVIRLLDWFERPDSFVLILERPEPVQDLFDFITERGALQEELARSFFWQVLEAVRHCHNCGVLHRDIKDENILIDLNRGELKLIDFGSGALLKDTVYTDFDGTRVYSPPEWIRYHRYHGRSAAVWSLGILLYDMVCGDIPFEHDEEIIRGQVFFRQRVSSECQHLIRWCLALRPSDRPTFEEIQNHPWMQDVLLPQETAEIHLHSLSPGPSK

| inhibition at 2 µM [%] | SMILES |
| --- | --- |
| -0.36 | CN1CCCCC1CNC(=O)c1cccc(-c2ccc(/C=C3/C(=O)Nc4ccc(C#N)cc43)o2)c1 (centres unmarked) [Compound 46] |
| 26.6 | Cc1cnc(CNC(=O)c2ccc(-c3ccc(/C=C4/C(=O)Nc5ccc(F)cc54)o3)cc2)cn1 [Compound 82] |
| 43.3 | O=C1Nc2ccccc2/C1=C\c1ccc(-c2cc(F)cc(C(=O)NCCN3CCCC3)c2)o1 [Compound 79] |
| 10.6 | CCN1CCCC1CNC(=O)c1cccc(-c2ccc(/C=C3/C(=O)Nc4ccccc43)o2)c1 (centres unmarked) [Compound 57] |
| 25.2 | CC1CCN(CCCNC(=O)c2cccc(-c3ccc(/C=C4/C(=O)Nc5ccc(Cl)cc54)o3)c2)CC1 [Compound 121] |
| -29.9 | CCCC(=O)Nc1cc(C(=O)NCCN2CCCC2)ccc1-c1ccc(/C=C2/C(=O)Nc3ccccc32)o1 [Compound 169] |
| 32.7 | COCCNC(=O)c1ccc2c(c1)/C(=C\c1ccc(-c3cccc(C(=O)NCCN4CCCC4)c3)o1)C(=O)N2 [Compound 7] |
| 15.6 | CCN(CC)CCNC(=O)c1cc(-c2ccc(/C=C3/C(=O)Nc4ccc(F)cc43)o2)ccc1Cl [Compound 74] |
| 2.7 | O=C1Nc2cc(C(F)(F)F)ccc2/C1=C\c1ccc(-c2cccc(C(=O)NCCN3CCCC3)c2)o1 [Compound 49] |
| 15.2 | CN1CCN(C(=O)c2ccc(-c3ccc(/C=C4/C(=O)Nc5ccccc54)o3)cn2)CC1 [Compound 136] |
| 21.2 | CN(C)C(=O)c1cccc(-c2ccc(/C=C3/C(=O)Nc4ccc(Cl)cc43)o2)c1 [Compound 175] |
| 43 | O=C1Nc2ccccc2/C1=C\c1ccc(-c2ccc(C(=O)O)c(O)c2)o1 [Compound 170] |

Same assay, conditions: Table 1; given for compounds with IC50 at or below 2 micromolar; 15 uM ATP; read-out: PIM-1 IC50

| IC50 [nM] | SMILES |
| --- | --- |
| < 1000 | CCN1CCCC1CNC(=O)c1cccc(-c2ccc(/C=C3/C(=O)Nc4ccc(Cl)cc43)o2)c1 (centres unmarked) [Compound 112] |
| < 1000 | O=C(CCN1CCCC1)Nc1cccc(-c2ccc(/C=C3/C(=O)Nc4ccccc43)o2)c1 [Compound 184] |
| < 1000 | O=C1Nc2ccc(Cl)cc2/C1=C\c1ccc(-c2cccc(C(=O)NCCN(CCO)CCO)c2)o1 [Compound 193] |
| < 1000 | O=C1Nc2ccccc2/C1=C\c1ccc(-c2ccc(C(=O)O)nc2)o1 [Compound 127] |
| < 1000 | COC(=O)c1ccc2c(c1)/C(=C\c1ccc(-c3cccc(C(=O)NCCN4CCCC4)c3)o1)C(=O)N2 [Compound 5] |
| < 1000 | CCN(CC)CCC(=O)Nc1cccc(-c2ccc(/C=C3/C(=O)Nc4ccccc43)o2)c1 [Compound 185] |
| < 1000 | Nc1cc(C(=O)NCCN2CCCC2)ccc1-c1ccc(/C=C2/C(=O)Nc3ccccc32)o1 [Compound 144] |
| < 2000 | O=C1Nc2ccc(F)cc2/C1=C\c1ccc(-c2cc(C(=O)NCCN3CCCC3)ccc2Cl)o1 [Compound 13] |
| < 2000 | O=C1Nc2ccccc2/C1=C\c1ccc(-c2cc(F)cc(C(=O)NCCN3CCCC3)c2)o1 [Compound 79] |
| < 1000 | CCN(CC)CCNC(=O)c1cccc(-c2ccc(/C=C3/C(=O)Nc4ccccc43)o2)c1 [Compound 4] |
| < 2000 | CN(C)C1CCN(C(=O)c2ccc(-c3ccc(/C=C4/C(=O)Nc5ccccc54)o3)cc2)CC1 [Compound 38] |
| < 1000 | O=C1Nc2ccc(Cl)cc2/C1=C\c1ccc(-c2cccc(C(=O)NCc3ccncc3)c2)o1 [Compound 108] |
| < 1000 | C/C(=C1\C(=O)Nc2ccc(Cl)cc21)c1ccc(-c2ccc(C(=O)N3CCCN(C)CC3)cc2)o1 [Compound 195] |
| < 2000 | O=C1Nc2ccccc2/C1=C\c1ccc(-c2cc(C(=O)NCCN3CCCC3)ccc2Cl)o1 [Compound 14] |
